Holding throughout (format): in vivo, mouse
Test [1] deals with renal FGF23 target genes Cyp27b1 and Cyp24a1. Nature of the test: Renal FGF23 target gene expression (qPCR) after single oral dose in wild-type and Hyp mice. To be noted: both wild-type and Hyp mice, single oral dose 50 mg/kg, 7 h. The source says:
(§1) FGFR inhibitor treatment induces 1,25(OH)2D3 biosynthesis and alleviates hypocalcemia and hypophosphatemia in Hyp mice. Wild-type C57BL/6 and Hyp (B6.Cg-PhexHyp/J) mice were obtained from The Jackson Laboratory. Dmp1-null mice were generated by Feng et al. (J. Dent. Res. 2003; 82:776-780.). All mice were kept in cages under standard laboratory conditions. Mice were fed on a standard rodent diet with water ad libitum.
Wild-type or Hyp mice received a single oral dose of the FGFR inhibitor BGJ398 in its free base form (50 mg/kg) or vehicle and were studied 7 h after administration of the compound. BGJ398 or vehicle only (PEG-300/Glucose 5%, 2:1 mix) was administered by oral gavage. Mice were used at 5-7 weeks of age in the case of single dose administrations. […] Concentrations of BGJ398 in kidney at 7 h was also determined. […]
Gene expression was analyzed by quantitative real-time PCR (qPCR). […] Quantitative real-time PCR was performed in an iQ5 Real-Time PCR Detection System using a qPCR core kit for probe assay and an equivalent of 40 or 80 ng RNA of each sample. […]
FGF23 exerts its hypophosphatemic functions in part by transcriptional regulation of the 1,25(OH)2D3-metabolizing enzymes CYP27B1 and CYP24A1 in the kidney. We therefore monitored renal Cyp27b1 and Cyp24a1 expression upon single dose treatment with BGJ398 in Hyp mice and wild-type littermates.

Test [2] concerns Dmp1-null mice. Nature of the test: Serum calcium and phosphate after single oral dose in Dmp1-null mice. To be noted: single oral dose 50 mg/kg, 24 h post-administration.
Excerpt: as §1
For analysis of calcium and phosphate levels mice received a single oral dose of the FGFR inhibitor BGJ398 (50 mg/kg) or vehicle and were studied 24 h post-administration. Phosphate and calcium levels were determined from serum. As for Hyp mice, pharmacological FGFR inhibition led to increased serum calcium and phosphate levels in Dmp1-null mice (FIGS. 2C and D, respectively). Data in FIG. 2 are shown as average with SEM (n≥6). Data were compared by unpaired Student's t test; * p<0.05; ** p<0.01; *** p<0.001; n. s.: not significant.

For test [3], the system named is Hyp mice. Nature of the test: Long-term (8 weeks, 3 qw) treatment of Hyp mice: body weight, tail length, serum parameters. The settings on record: 50 mg/kg 3 qw for 56 days. On the procedure: Serum was separated from whole blood using clot activator centrifugation tubes. 100 μl of serum were used for determination of phosphate and calcium levels using the VetScan diagnostic profiling system. Serum concentrations of 1,25(OH)2D3 were determined using a radio receptor assay kit. FGF23 serum levels were analyzed by an ELISA detecting intact FGF23 (Kainos).
Long-term FGFR inhibition enhances body weight and tail length development and restores mineral ion homeostasis in Hyp mice. A long-term treatment studies was performed to monitor a potential amelioration of the rickets-like bone phenotypes of the Hyp mouse model. Treatments were performed over a course of 8 weeks. Owing to the persistence of elevated calcium and phosphate levels—extending beyond the clearance of BGJ398 from the kidney (FIG. 4)—mice were treated three times weekly (3 qw) with BGJ398 (50 mg/kg body weight) or vehicle for 56 days and analyzed similarly as explained above. […] Total body weight (FIG. 5B) and tail length gain (FIG. 5D) over the course of the treatment are depicted in FIG. 5 as well. Calcium (FIG. 5E) and phosphate (FIG. 5F) levels at the end of the 8 week treatment were determined from serum 24 h after the last administration and are shown in FIG. 5. Data are shown as average with SEM (n≥6). Data were compared by unpaired Student's t test; * p<0.05; ** p<0.01; *** p<0.001; n. s.: not significant.
Wild-type or Hyp mice were treated again with the FGFR inhibitor BGJ398 (50 mg/kg) or vehicle 3 qw for 56 days and FGF23 (FIG. 6A), parathyroid hormone (PTH) (FIG. 6B) and 1,25(OH)2D3 (FIG. 6C) levels were determined from serum at 24 h after the last dosing. PTH values were determined by separating the serum from whole blood using clot activator centrifugation tubes (Sarstedt). 20 μl of serum were used for determination PTH levels using a mouse PTH ELISA (Immutopics). Data were compared by unpaired Student's t test; * p<0.05; ** p<0.01; *** p<0.001; n. s.: not significant.

Setting [4] is: Hyp mice, 24 h after last administration.
Setting [5] is: Hyp mice, 24 h after last dosing.

As to `CCN1CCN(c2ccc(Nc3cc(N(C)C(=O)Nc4c(Cl)c(OC)cc(OC)c4Cl)ncn3)cc2)CC1` [BGJ398, 3-(2,6-Dichloro-3,5-dimethoxy-phenyl)-1-{6-[4-(4-ethyl-piperazin-1-yl)-phenylamino]-pyrimid-4-yl}-1-methyl-urea], in test [1], the “renal Cyp24a1 expression” value was “almost complete loss of Cyp24a1 expression” and the “renal Cyp27b1 expression” value is recorded as “increased Cyp27b1 levels”. In addition, in test [2], the serum calcium levels entry is on record as “increased” and the serum phosphate levels result is recorded as “increased”. Moreover, in test [3] (setting [4]), the serum calcium levels entry is “complete normalization” and the serum phosphate levels result is recorded as “complete normalization”. In test [3] (setting [5]), the FGF23 serum concentrations result is “further increase” and the “PTH levels (serum)” value was “normalization”. Also, the tail length development entry in test [3] (Hyp mice, vs control Hyp) was “much stronger increase in tail length compared to control Hyp mice”. Besides, the body weight development entry in test [3] (Hyp mice, vs vehicle Hyp) was “stronger increase in body weight compared to the vehicle control group”. Further, the tail length gain entry in test [3] (Hyp mice, vs vehicle wild-type) is on record as “significantly higher compared to vehicle-treated wild-type littermates”. Also, the “1,25(OH)2D3 serum levels” value in test [3] (wild-type or Hyp mice, 24 h after last dosing) was “not significantly different among the treatment groups”.

(Values after patent US10028955B2, “FGFR inhibitor for use in the treatment of hypophosphatemic disorders” (Novartis AG, priority 2012, dated 2018).)
